From patent publication US9249102B2 (priority 2012, dated 2016)
Read-outs that look alike come from different tables or passages of the source.

Legend:
Haemonchus contortus [1] = experiment: Method D: Haemonchus contortus in vivo in Mongolian jirds; design: species or system Mongolian jirds (Meriones unguiculatus); conditions: po, 72 h, read-out: reduction in nematode infestation
[2] = tested on: microfilaria of Dirofilaria immitis; experiment: Method F: microfilaria of Dirofilaria immitis, survival at 24 hours
[3] = Method G: permeability in the Caco-2/TC7 in vitro model; conditions: human, Caco-2, pH 6.5
Cooperia oncophora = experiment: Method C: Cooperia oncophora L1 larvae in vitro; conditions: 96 h, read-out: inhibition of motility
Haemonchus contortus [4] = experiment: Method A: Haemonchus contortus L1 larvae, microtitre plate screen; conditions: 96 h, read-out: motility inhibition
[5] = tested on: anthelmintic-resistant isolate of Haemonchus contortus; experiment: Method B: anthelmintic-resistant (benzimidazole-resistant) isolate of Haemonchus contortus, conditions of method A; conditions: H. contortus isolate functionally resistant against benzimidazoles
[6] = survival of microfilaria at 24 hours

Structure (SMILES) | inhibition in vivo at 30 mg/kg (Haemonchus contortus [1]) [%] | EC50 [2, 6] [mg/L] | Papp A→B at 20 μM [3] [nm/s] | inhibition at 5 µg/mL (Cooperia oncophora) [%] | inhibition at 5 µg/mL (Haemonchus contortus [4]) [%] | EC50 [2] [mg/L] | inhibition in vivo at 30 mg/kg (Haemonchus contortus [1]; in Meriones unguiculatus) [%] | fold resistance of the isolate [5] [fold]
O=C(CO[C@H]1CC[C@H](Nc2ccc([N+](=O)[O-])c(C(F)(F)F)c2)CC1)N1CCN(Cc2nc3cc(F)ccc3s2)CC1 [Compound 235, 1-(4-((5-fluorobenzo[d]thiazol-2-yl)methyl)piperazin-1-yl)-2-(-4-(4-nitro-3-(trifluoromethyl)phenylamino)cyclohexyloxy)ethanone] | 70 to 90 | < 1 | 138 | ≥ 90 | ≥ 90 |  |  | 
CN(c1ccc([N+](=O)[O-])c(C(F)(F)F)c1)[C@H]1CC[C@H](OCC(=O)N2CCN(c3ccc4cc(C(F)(F)F)ccc4n3)CC2)CC1 [Compound 245, 2-[[(1r,4r)-4-[methyl[4-nitro-3-(trifluoromethyl)phenyl]amino]cyclohexyl]oxy]-1-[4-[6-(trifluoromethyl)quinolin-2-yl]piperazin-1-yl]ethan-1-one] | > 90 |  |  | ≥ 90 | ≥ 90 | < 1 |  | 
CN(c1ccc([N+](=O)[O-])c(C(F)(F)F)c1)[C@H]1CC[C@H](OCC(=O)N2CCN(CC3Cc4cc(F)ccc4O3)CC2)CC1 (some centres unmarked) [Compound 261, 1-[4-(5-fluoro-2,3-dihydro-benzofuran-2-ylmethyl)-piperazin-1-yl]-2-{4-[methyl-(4-nitro-3-trifluoromethyl-phenyl)-amino]-cyclohexyloxy}-ethanone] | > 90 | < 0.1 | 82 | ≥ 90 | ≥ 90 |  |  | 
N#Cc1ccc(N[C@H]2CC[C@H](OCC(=O)N3CCN(c4ccc5cc(Cl)ccc5n4)CC3)CC2)cc1C(F)(F)F [Compound 272, 2-[(4-[[4-cyano-3-(trifluoromethyl)phenyl]amino]cyclohexyl)oxy]-1-[4-(6-chloroquinolin-2-yl)piperazin-1-yl]ethan-1-one] | 70 to 90 | < 1 |  | ≥ 90 | ≥ 90 |  |  | 
N#Cc1ccc(N[C@H]2CC[C@H](OCC(=O)N3CCN(c4ccc5cc(C(F)(F)F)ccc5n4)CC3)CC2)cc1C(F)(F)F [Compound 273, 2-[(4-[[4-cyano-3-(trifluoromethyl)phenyl]amino]cyclohexyl)oxy]-1-[4-[6-(trifluoromethyl)quinolin-2-yl]piperazin-1-yl]ethan-1-one] | > 90 | < 1 |  | ≥ 90 | ≥ 90 |  |  | 
N#Cc1ccc(N[C@H]2CC[C@H](OCC(=O)N3CCN(c4ccc5cc(Cl)ccc5c4)CC3)CC2)cc1C(F)(F)F [Compound 278] |  | < 1 |  | ≥ 90 | ≥ 90 |  | 70 to 90 | 
O=C(CO[C@H]1CC[C@H](Nc2ccc([N+](=O)[O-])c(C(F)(F)F)c2)CC1)N1CCN(Cc2nc3cc(C(F)(F)F)ccc3s2)CC1 [Compound 302, 2-[4-[4-nitro-3-(trifluoromethyl)anilino]cyclohexoxy]-1-[4-[[5-(trifluoromethyl)-1,3-benzothiazol-2-yl]methyl]piperazin-1-yl]ethanone] | > 90 | < 0.1 |  | ≥ 90 | ≥ 90 |  |  | 
O=C(CO[C@H]1CC[C@H](Nc2ccc([N+](=O)[O-])c(C(F)(F)F)c2)CC1)N1CCN(Cc2cc3cc(F)c(F)cc3o2)CC1 [Compound 325, 2-[(4-[[4-nitro-3-(trifluoromethyl)phenyl]amino]cyclohexyl)-oxy]1-[4-(5,6-difluorobenzofuran-2-ylmethyl)piperazin-1-yl]ethan-1-one] | 70 to 90 |  | 90 | ≥ 90 | ≥ 90 |  |  | 
O=C(CO[C@H]1CC[C@H](Nc2ccc([N+](=O)[O-])c(C(F)(F)F)c2)CC1)N1CCN(Cc2cnc3cc(C(F)(F)F)ccc3c2)CC1 [Compound 327, 2-[4-(4-nitro-3-trifluoromethyl-phenylamino)-cyclohexyloxy]-1-[4-(7-trifluoromethyl-quinolin-3-ylmethyl)-piperazin-1-yl]-ethanone] | 70 to 90 |  | 69 |  | ≥ 90 |  |  | 
c1ccc2[nH]c(-c3cscn3)nc2c1 [thiabendazole] |  |  |  |  |  |  |  | 127
